Test system: MCF7 multi-cell spheroids with HUVEC/MSC, viability
Experiment: Anticancer human tumor MCF7 cell line growth inhibition [IpAb];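 note: spheroids exposed to agents for seven days before readout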
Conditions: for IC50: curve of first compound; for viability, T/C: stronger effect = lower value
Summary of the method: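 Combinations with ipatasertib or abemaciclib were tested on tumour spheroids holding HUVEC (25%) and MSC (15%) alongside 60% malignant cells. Top concentration was at or near clinical Cmax (10 microM if undefined), descending in half-log steps.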

[1] = second compound 0.1 µM, first compound 0.0316 µM
[2] = second compound 0.1 µM, first compound 0.1 µM
[3] = second compound 0.1 µM, first compound 0.316 µM
[4] = second compound 0.1 µM, first compound 1 µM
[5] = second compound 0.1 µM, first compound 3.16 µM
[6] = second compound 0.1 µM, first compound 10 µM
[7] = second compound 0.316 µM, first compound 0.0316 µM
[8] = second compound 0.316 µM, first compound 0.1 µM
[9] = second compound 0.316 µM, first compound 0.316 µM
[10] = second compound 0.316 µM, first compound 1 µM
[11] = second compound 0.316 µM, first compound 3.16 µM
[12] = second compound 0.316 µM, first compound 10 µM
[13] = second compound 1 µM, first compound 0.0316 µM
[14] = second compound 1 µM, first compound 0.1 µM
[15] = second compound 1 µM, first compound 0.316 µM
[16] = second compound 1 µM, first compound 1 µM
[17] = second compound 1 µM, first compound 3.16 µM
[18] = second compound 1 µM, first compound 10 µM
[19] = second compound 3.16 µM, first compound 0.0316 µM
[20] = second compound 3.16 µM, first compound 0.1 µM
[21] = second compound 3.16 µM, first compound 0.316 µM
[22] = second compound 3.16 µM, first compound 1 µM
[23] = second compound 3.16 µM, first compound 3.16 µM
[24] = second compound 3.16 µM, first compound 10 µM
[25] = second compound 10 µM, first compound 0.0316 µM
[26] = second compound 10 µM, first compound 0.1 µM
[27] = second compound 10 µM, first compound 0.316 µM
[28] = second compound 10 µM, first compound 1 µM
[29] = second compound 10 µM, first compound 3.16 µM
[30] = second compound 10 µM, first compound 10 µM

Cn1ncc(Cl)c1-c1cc(C(=O)NC(CN)Cc2cccc(F)c2)sc1Cl (stereo not given) + CC(C)NCC(C(=O)N1CCN(c2ncnc3c2C(C)CC3O)CC1)c1ccc(Cl)cc1
IC50 (second compound 0.1 µM): 1200 nM
IC50 (second compound 0.316 µM): 996 nM
IC50 (second compound 1 µM): 1310 nM
IC50 (second compound 3.16 µM): 566 nM
IC50 (second compound 10 µM): < 31.6 nM
viability, T/C [1]: 85.2%
viability, T/C [2]: 79.4%
viability, T/C [3]: 74.2%
viability, T/C [4]: 59.2%
viability, T/C [5]: 3.8%
viability, T/C [6]: 0.14%
viability, T/C [7]: 84.1%
viability, T/C [8]: 73.7%
viability, T/C [9]: 72.5%
viability, T/C [10]: 51.1%
viability, T/C [11]: 10.7%
viability, T/C [12]: 0.13%
viability, T/C [13]: 74.7%
viability, T/C [14]: 70.7%
viability, T/C [15]: 67.5%
viability, T/C [16]: 63.4%
viability, T/C [17]: 7%
viability, T/C [18]: 0.12%
viability, T/C [19]: 59.9%
viability, T/C [20]: 61.4%
viability, T/C [21]: 54%
viability, T/C [22]: 43.2%
viability, T/C [23]: 6.48%
viability, T/C [24]: 0.13%
viability, T/C [25]: 42.6%
viability, T/C [26]: 49.1%
viability, T/C [27]: 47.3%
viability, T/C [28]: 43.3%
viability, T/C [29]: 2.17%
viability, T/C [30]: 0.59%

Cn1nccc1Nc1nccc(-c2ccn(C(CO)c3ccc(Cl)c(F)c3)c(=O)c2)n1 (stereo not given) + CC(C)NCC(C(=O)N1CCN(c2ncnc3c2C(C)CC3O)CC1)c1ccc(Cl)cc1
IC50 (second compound 0.1 µM): > 10000 nM
IC50 (second compound 0.316 µM): > 10000 nM
IC50 (second compound 1 µM): > 10000 nM
IC50 (second compound 3.16 µM): > 10000 nM
IC50 (second compound 10 µM): < 31.6 nM
viability, T/C [1]: 82.7%
viability, T/C [2]: 85.4%
viability, T/C [3]: 91%
viability, T/C [4]: 116%
viability, T/C [5]: 113%
viability, T/C [6]: 98.5%
viability, T/C [7]: 72.7%
viability, T/C [8]: 77.4%
viability, T/C [9]: 78.3%
viability, T/C [10]: 77.6%
viability, T/C [11]: 99.6%
viability, T/C [12]: 76.8%
viability, T/C [13]: 65.2%
viability, T/C [14]: 66.7%
viability, T/C [15]: 74.4%
viability, T/C [16]: 74.6%
viability, T/C [17]: 77.7%
viability, T/C [18]: 77.5%
viability, T/C [19]: 51.9%
viability, T/C [20]: 55%
viability, T/C [21]: 52.1%
viability, T/C [22]: 56.2%
viability, T/C [23]: 64.2%
viability, T/C [24]: 72.6%
viability, T/C [25]: 43.8%
viability, T/C [26]: 41%
viability, T/C [27]: 38.4%
viability, T/C [28]: 49.4%
viability, T/C [29]: 44.2%
viability, T/C [30]: 44.2%

Cn1ncnc1[C@H]1c2n[nH]c(=O)c3cc(F)cc(c23)N[C@@H]1c1ccc(F)cc1 + CC(C)NCC(C(=O)N1CCN(c2ncnc3c2C(C)CC3O)CC1)c1ccc(Cl)cc1
IC50 (second compound 0.1 µM): > 100 nM
IC50 (second compound 0.316 µM): > 100 nM
IC50 (second compound 1 µM): > 100 nM
IC50 (second compound 3.16 µM): 20.3 nM
IC50 (second compound 10 µM): < 0.316 nM
viability, T/C (second compound 0.1 µM, first compound 0.000316 µM): 98.7%
viability, T/C (second compound 0.1 µM, first compound 0.001 µM): 92.8%
viability, T/C (second compound 0.1 µM, first compound 0.00316 µM): 89.7%
viability, T/C (second compound 0.1 µM, first compound 0.01 µM): 87.5%
viability, T/C [1]: 79.8%
viability, T/C [2]: 85.5%
viability, T/C (second compound 0.316 µM, first compound 0.000316 µM): 74.4%
viability, T/C (second compound 0.316 µM, first compound 0.001 µM): 79.9%
viability, T/C (second compound 0.316 µM, first compound 0.00316 µM): 81.2%
viability, T/C (second compound 0.316 µM, first compound 0.01 µM): 72.5%
viability, T/C [7]: 71.8%
viability, T/C [8]: 82.6%
viability, T/C (second compound 1 µM, first compound 0.000316 µM): 67.9%
viability, T/C (second compound 1 µM, first compound 0.001 µM): 75.6%
viability, T/C (second compound 1 µM, first compound 0.00316 µM): 67.2%
viability, T/C (second compound 1 µM, first compound 0.01 µM): 62.3%
viability, T/C [13]: 63%
viability, T/C [14]: 56.5%
viability, T/C (second compound 3.16 µM, first compound 0.000316 µM): 59%
viability, T/C (second compound 3.16 µM, first compound 0.001 µM): 56.3%
viability, T/C (second compound 3.16 µM, first compound 0.00316 µM): 58.3%
viability, T/C (second compound 3.16 µM, first compound 0.01 µM): 50.1%
viability, T/C [19]: 47.4%
viability, T/C [20]: 46.4%
viability, T/C (second compound 10 µM, first compound 0.000316 µM): 42.3%
viability, T/C (second compound 10 µM, first compound 0.001 µM): 46.5%
viability, T/C (second compound 10 µM, first compound 0.00316 µM): 39.9%
viability, T/C (second compound 10 µM, first compound 0.01 µM): 36.1%
viability, T/C [25]: 41.5%
viability, T/C [26]: 36.4%

— PubChem BioAssay AID2060329 (Molecular Pharmacology Branch, DTP, NCI, 2025)
